In US11493451B2, “Colorimetric drug test strip using porous support material” (Palo Alto Research Center Incorporated, priority 2019, dated 2022):
Where two headings read alike, the source gives them in different places.

Columns and labels:
[1] = cited from earlier work; for Cmax in blood or plasma / Concentration in Saliva: THC (40 mg); for Concentration in Saliva: maximum concentration in oral fluid
[2] = cited from earlier work
[3] = THC and metabolite concentrations in oral fluid and whole blood after smoking a cannabis joint (Fabritius et al.)
From the text: (§1) While pharmacokinetic profile is specific to each individual drug, there are multiple challenges with immunoassay-based roadside drug testing. Current hand-held immunoassays drug testing devices from saliva detect the metabolites of the drugs in question. One challenge with metabolite testing is that depending on the drug and on the mode of administration, there may be delays in the detectability of the drug from the time of ingestion to the test time. For example, in the case of methylenedioxy-methamphetamine (MDMA) detection, the time to maximum concentration of (tmax) of MDMA is 2.8 hours, while for its main metabolite, methylenedioxyamphetamine (MDA), the tmax increases to 4.8 hours. […] This makes metabolite detection very challenging.

[4] = MA (20 mg), cited from earlier work; for Concentration in Saliva: maximum concentration in oral fluid
[5] = Methamphetamine disposition in oral fluid and plasma (Huestis et al.)
From the text: as §1

[6] = Cocaine (75 mg subcutaneous), cited from earlier work
[7] = Cocaine and metabolites in human oral fluid and plasma following controlled administration (Scheidweiler et al.)
From the text: as §1

[8] = MDMA (75 mg), oral, cited from earlier work; for Concentration in Saliva: maximum concentration in oral fluid
[9] = Oral fluid and plasma MDMA and metabolite after controlled oral MDMA administration (Desrosiers et al.); assay type: in vivo, human; conditions: MDMA (75 mg); for Kp: human, saliva (oral fluid) / plasma, read-out: Ratio Saliva/Blood
From the text: This makes metabolite detection very challenging.

[10] = after MDMA; cited from earlier work
[11] = Cocaine (75 mg subcutaneous), cocaine vs BE + EME

Compound: CCCCCc1cc(O)c2c(c1)OC(C)(C)[C@@H]1CCC(C)=C[C@@H]21 [THC, Δ9-tetrahydrocannabinol]
- Cmax in blood or plasma [1]: 87 ng/mL
- Concentration in Saliva [1]: 636 ng/mL
- THC concentration in saliva relative to main metabolite THC-COOH (times higher) ([1]; in one study, saliva): ~2000 ×
- time over which saliva THC concentration decreases slowly after consumption ([2]; THC ingested from food, saliva): about 24 hours
- THC concentration in saliva after being ingested from food versus same amount of smoked THC ([2]; first 15 minutes, saliva): about ten times lower
- rapid decay after maximum concentration ([2]; smoked or vaped THC): 1 to 2 h
- time to peak effect and maximum concentration ([2]; smoked or vaped THC): seconds or minutes
- Ratio Parent:Metabolite, Cmax in blood or plasma ([3]; THC (40 mg), THC vs THC-COOH): 2.1
- Ratio Parent:Metabolite, concentration in saliva ([3]; THC (40 mg), THC vs THC-COOH): 2120
- Kp ([3]; human, saliva (oral fluid) / whole blood, inhaled, 40 mg): 7.3

Compound: CCCCCc1cc(O)c2c(c1)OC(C)(C)[C@@H]1CCC(C(=O)O)=C[C@@H]21 [THC-COOH]
- Cmax in blood or plasma [1]: 41 ng/mL
- Concentration in Saliva [1]: 0.3 ng/mL
- Ratio Saliva/Blood ([3]; THC (40 mg)): 0.007

Compound: CN[C@@H](C)Cc1ccccc1 [MA, methamphetamine]
- Cmax in blood or plasma [4]: 32 ng/mL
- Concentration in Saliva [4]: 192 ng/mL
- Ratio Parent:Metabolite, Cmax in blood or plasma ([5]; MA (20 mg), MA vs A): 5.3
- Ratio Parent:Metabolite, concentration in saliva ([5]; MA (20 mg), MA vs A): 13.7
- Kp ([5]; human, saliva (oral fluid) / plasma, 20 mg): 6

Compound: COC(=O)[C@H]1[C@@H](OC(=O)c2ccccc2)C[C@@H]2CC[C@H]1N2C [Cocaine, cocaine]
- Cmax in blood or plasma [6]: 305 ng/mL
- Concentration in Saliva ([6]; maximum concentration in oral fluid): 1092 ng/mL
- Ratio Parent:Metabolite, Cmax in blood or plasma [7, 11]: 0.8
- Ratio Parent:Metabolite, concentration in saliva [7, 11]: 4.1
- Kp ([7]; human, saliva (oral fluid) / plasma, sc, 75 mg): 3.6

Compound: CNC(C)Cc1ccc2c(c1)OCO2 (stereo not drawn) [MDMA, methylenedioxy-methamphetamine]
- Cmax in blood or plasma [8]: 150 ng/mL
- Concentration in Saliva [8]: 1643 ng/mL
- Ratio Parent:Metabolite, concentration in saliva ([9]; MDMA vs MDA): 40
- Kp [9]: 11
- time to maximum concentration (tmax) [10]: 2.8 h

Compound: CC(N)Cc1ccccc1 (stereo not drawn) [A]
- Concentration in Saliva [4]: 14 ng/mL

Compound: CC(N)Cc1ccc2c(c1)OCO2 (stereo not drawn) [MDA, methylenedioxyamphetamine]
- Cmax in blood or plasma [8]: 7 ng/mL
- Concentration in Saliva [8]: 41 ng/mL
- Kp [9]: 5.8
- time to maximum concentration (tmax) [10]: 4.8 h
